Earlier results on 4 compounds are cited in article PMC2924185 (Journal of the American Chemical Society, 2010).

Each structure is given as a SMILES string.

For this data set, the system named is panel of human protein kinases. The following applies: for selectivity score: judged by similar criteria.

In the case of `Cc1ccc(-c2nn(C(C)(C)C)c3ncnc(N)c23)cc1` [PP1], the “potency among Src-family kinases (in words)” value is “significantly more potent against Src-family members Fyn, Hck, and Lyn than against Src itself”.

For the compound `CC(C)(C)n1nc(-c2ccc(Cl)cc2)c2c(N)ncnc21` [PP2], the “potency among Src-family kinases (in words)” value is “significantly more potent against Src-family members Fyn, Hck, and Lyn than against Src itself”.

Turning to `CNC(=O)c1cc(Oc2ccc(NC(=O)Nc3ccc(Cl)c(C(F)(F)F)c3)cc2)ccn1` [sorafenib], the selectivity score is on record as 0.10.

Regarding `CN[C@@H]1C[C@H]2O[C@@](C)([C@@H]1OC)n1c3ccccc3c3c4c(c5c6ccccc6n2c5c31)C(=O)NC4` [staurosporine], the selectivity score was 0.50.
